Results taken from US6737383B1, “Herbicidal oxadiazolidines” (priority 1999, dated 2004).

Experiments:
bedstraw = test: Test B pre/postemergence bedstraw; format: in vivo, Galium aparine
Summary of the method: (§1)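 Herbicidal effect was estimated by eye on a ten-point control scale after plants spent twelve to sixteen days in a greenhouse following soil or foliar treatment. Foliar sprays targeted plants at one to four leaves; all doses were formulated in a non-phytotoxic solvent with surfactant.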

blackgrass = test: Test B pre/postemergence blackgrass; format: in vivo, Alopecurus myosuroides
Summary of the method: as §1

surinam grass = test: Test B pre/postemergence surinam grass; format: in vivo, Brachiaria decumbens
Summary of the method: as §1

cocklebur = test: Test B pre/postemergence cocklebur; format: in vivo, Xanthium strumarium
Summary of the method: as §1

corn = test: Test B pre/postemergence corn; format: in vivo, Zea mays
Summary of the method: as §1

crabgrass = test: Test B pre/postemergence crabgrass; format: in vivo, Digitaria sanguinalis
Summary of the method: as §1

giant foxtail = test: Test B pre/postemergence giant foxtail; format: in vivo, Setaria faberii
Summary of the method: as §1

morningglory = test: Test B pre/postemergence morningglory; format: in vivo, Ipomoea hederacea
Summary of the method: as §1

pigweed = test: Test B pre/postemergence pigweed; format: in vivo, Amaranthus retroflexus
Summary of the method: as §1

rape = test: Test B pre/postemergence rape; format: in vivo, Brassica napus
Summary of the method: as §1

soybean = test: Test B pre/postemergence soybean; format: in vivo, Glycine max
Summary of the method: as §1

velvetleaf = test: Test B pre/postemergence velvetleaf; format: in vivo, Abutilon theophrasti
Summary of the method: as §1

wheat = test: Test B pre/postemergence wheat; format: in vivo, Triticum aestivum
Summary of the method: as §1

wild oat = test: Test B pre/postemergence wild oat; format: in vivo, Avena fatua
Summary of the method: as §1

purple nutsedge = test: Test B pre/postemergence purple nutsedge; format: in vivo, Cyperus rotundus
Summary of the method: as §1

[1] = Preemergence, Rate 250 g/ha, scale of 0 to 10 where 0 is no effect and 10 is complete control
[2] = Preemergence, Rate 500 g/ha, scale of 0 to 10 where 0 is no effect and 10 is complete control
[3] = Rate 62 g/ha, Postemergence, scale 0 to 10 (0 no effect, 10 complete control)
[4] = Rate 125 g/ha, Postemergence, scale of 0 to 10 where 0 is no effect and 10 is complete control
[5] = Rate 125 g/ha, Preemergence, scale of 0 to 10 where 0 is no effect and 10 is complete control
[6] = Rate 250 g/ha, Postemergence, scale of 0 to 10 where 0 is no effect and 10 is complete control
[7] = Rate 500 g/ha, Postemergence, scale 0 to 10, 0 no effect, 10 complete control
[8] = Preemergence, Rate 62 g/ha, scale of 0 to 10 where 0 is no effect and 10 is complete control

CC(C)N(C(=O)n1oc(=O)n(CC(C)(C)C)c1=O)c1ccc(F)cc1F [Compound 277]
2: Plant response rating, Bedstraw (bedstraw; [2]) | Blackgrass plant response rating (blackgrass; [3]) | Cocklebur plant response rating (cocklebur; [7]) | Crabgrass plant response rating (crabgrass; [4]) | Giant foxtail plant response rating (giant foxtail; [3]) | Redroot pigweed plant response rating (pigweed; [4]) | Plant response rating, Rape (rape; [2]) | Rape plant response rating (rape; [4]) | Wild oats plant response rating (wild oat; [7])
5: Bedstraw plant response rating (bedstraw; [3]) | Plant response rating, Crabgrass (crabgrass; [6]) | Plant response rating, Redroot pigweed (pigweed; [2]) | Redroot pigweed plant response rating (pigweed; [7])
10: Blackgrass plant response rating (blackgrass; [1]) | Plant response rating, Blackgrass (blackgrass; [2]) | B. signalgrass plant response rating (surinam grass; [1]) | Plant response rating, B. signalgrass (surinam grass; [2]) | Plant response rating, Crabgrass (crabgrass; [2]) | Giant foxtail plant response rating (giant foxtail; [8]) | Giant foxtail plant response rating (giant foxtail; [1]) | Plant response rating, Giant foxtail (giant foxtail; [2]) | Giant foxtail plant response rating (giant foxtail; [5])
1: Plant response rating, B. signalgrass (surinam grass; [6]) | Plant response rating, Cocklebur (cocklebur; [6]) | Crabgrass plant response rating (crabgrass; [3]) | Redroot pigweed plant response rating (pigweed; [3]) | Rape plant response rating (rape; [1]) | Rape plant response rating (rape; [5]) | Velvetleaf plant response rating (velvetleaf; [3]) | Velvetleaf plant response rating (velvetleaf; [4]) | Velvetleaf plant response rating (velvetleaf; [5]) | Plant response rating, Velvetleaf (velvetleaf; [6]) | Velvetleaf plant response rating (velvetleaf; [7])
8: Plant response rating, Bedstraw (bedstraw; [6]) | Bedstraw plant response rating (bedstraw; [7]) | Blackgrass plant response rating (blackgrass; [4]) | Plant response rating, Blackgrass (blackgrass; [6]) | Blackgrass plant response rating (blackgrass; [7]) | Morningglory plant response rating (morningglory; [4]) | Plant response rating, Morningglory (morningglory; [6]) | Soybean plant response rating (soybean; [7]) | Plant response rating, Wild oats (wild oat; [2])
9: Blackgrass plant response rating (blackgrass; [5]) | B. signalgrass plant response rating (surinam grass; [5]) | Crabgrass plant response rating (crabgrass; [1]) | Morningglory plant response rating (morningglory; [7])
3: B. signalgrass plant response rating (surinam grass; [7]) | Plant response rating, Corn (corn; [2]) | Giant foxtail plant response rating (giant foxtail; [4]) | Plant response rating, Rape (rape; [6]) | Rape plant response rating (rape; [7]) | Soybean plant response rating (soybean; [3])
6: Bedstraw plant response rating (bedstraw; [4]) | Crabgrass plant response rating (crabgrass; [7]) | Giant foxtail plant response rating (giant foxtail; [7]) | Plant response rating, Soybean (soybean; [6]) | Velvetleaf plant response rating (velvetleaf; [1])
0: Bedstraw plant response rating (bedstraw; [1]) | Bedstraw plant response rating (bedstraw; [5]) | B. signalgrass plant response rating (surinam grass; [3]) | B. signalgrass plant response rating (surinam grass; [4]) | Cocklebur plant response rating (cocklebur; [8]) | Cocklebur plant response rating (cocklebur; [1]) | Plant response rating, Cocklebur (cocklebur; [2]) | Cocklebur plant response rating (cocklebur; [3]) | Cocklebur plant response rating (cocklebur; [4]) | Cocklebur plant response rating (cocklebur; [5]) | Corn plant response rating (corn; [8]) | Corn plant response rating (corn; [1]) | Corn plant response rating (corn; [3]) | Corn plant response rating (corn; [4]) | Corn plant response rating (corn; [5]) | Plant response rating, Corn (corn; [6]) | Corn plant response rating (corn; [7]) | Morningglory plant response rating (morningglory; [8]) | Morningglory plant response rating (morningglory; [1]) | Plant response rating, Morningglory (morningglory; [2]) | Morningglory plant response rating (morningglory; [5]) | Redroot pigweed plant response rating (pigweed; [1]) | Redroot pigweed plant response rating (pigweed; [5]) | Rape plant response rating (rape; [3]) | Soybean plant response rating (soybean; [8]) | Soybean plant response rating (soybean; [1]) | Soybean plant response rating (soybean; [5]) | Velvetleaf plant response rating (velvetleaf; [8]) | Wheat plant response rating (wheat; [1]) | Wheat plant response rating (wheat; [3]) | Wheat plant response rating (wheat; [4]) | Wheat plant response rating (wheat; [5]) | Plant response rating, Wheat (wheat; [6]) | Wheat plant response rating (wheat; [7]) | Wild oats plant response rating (wild oat; [3]) | Wild oats plant response rating (wild oat; [4]) | Plant response rating, Wild oats (wild oat; [6]) | Nutsedge plant response rating (purple nutsedge; [8]) | Nutsedge plant response rating (purple nutsedge; [1]) | Plant response rating, Nutsedge (purple nutsedge; [2]) | Nutsedge plant response rating (purple nutsedge; [3]) | Nutsedge plant response rating (purple nutsedge; [4]) | Nutsedge plant response rating (purple nutsedge; [5]) | Plant response rating, Nutsedge (purple nutsedge; [6]) | Nutsedge plant response rating (purple nutsedge; [7])
7: Morningglory plant response rating (morningglory; [3]) | Plant response rating, Velvetleaf (velvetleaf; [2]) | Wild oats plant response rating (wild oat; [1])
4: Crabgrass plant response rating (crabgrass; [8]) | Crabgrass plant response rating (crabgrass; [5]) | Plant response rating, Giant foxtail (giant foxtail; [6]) | Plant response rating, Redroot pigweed (pigweed; [6]) | Plant response rating, Soybean (soybean; [2]) | Soybean plant response rating (soybean; [4]) | Plant response rating, Wheat (wheat; [2])
